Assay results: patent publication US12479820B2, “Pyridin-3-yl derivatives” (Idorsia Pharmaceuticals Ltd, priority 2019, dated 2025)

Molecular target: T1, human LPA1 receptor (Homo sapiens, UniProt Q92633)
T1 construct: TEV protease site; Gal4-VP16 transcription factor; host or cells: Tango EDG2-bla U2OS cells
Assay: Beta-arrestin recruitment assay to determine IC50 values for human LPAR1
Format: cell-based
Details: Tango EDG2-bla U2OS cells, antagonist assay, LPA 18:1 500 nM final
Summary of the method: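 Tango EDG2-bla U2OS cells were preincubated 30 min at 37 °C with compound. They were then stimulated with 500 nM (final) LPA 18:1 for 16 h. β-Lactamase reporter read by LiveBLAzer FRET substrate (2 h) as the 460/530 nm ratio; IC50 from 4-parameter logistic fit.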

T1 sequence (Q92633 whole entry, the tested form may be a part): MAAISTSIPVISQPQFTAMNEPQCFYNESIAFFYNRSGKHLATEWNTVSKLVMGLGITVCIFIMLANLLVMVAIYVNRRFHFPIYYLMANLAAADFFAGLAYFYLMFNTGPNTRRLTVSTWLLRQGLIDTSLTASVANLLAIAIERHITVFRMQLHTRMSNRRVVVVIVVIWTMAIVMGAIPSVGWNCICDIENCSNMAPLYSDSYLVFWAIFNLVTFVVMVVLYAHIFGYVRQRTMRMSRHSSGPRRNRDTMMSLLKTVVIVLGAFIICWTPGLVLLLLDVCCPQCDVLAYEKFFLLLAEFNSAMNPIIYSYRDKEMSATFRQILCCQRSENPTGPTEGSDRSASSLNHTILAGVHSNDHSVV

How did the IC50 turn out when CCOC(=O)C(C)(C)CCCN1CC(C(=O)Nc2cnc(Cl)cc2OCC)(c2ccccc2C(C)C)C1 [Example 18-26, ethyl 5-(3-((6-chloro-4-ethoxypyridin-3-yl)carbamoyl)-3-(2-isopropylphenyl)azetidin-1-yl)-2,2-dimethylpentanoate] was run?
The IC50 was 72 nM.

CCOc1cc(Cl)ncc1NC(=O)C1(c2ccccc2C(C)C)CNC1 [Example 5, N-(6-chloro-4-ethoxypyridin-3-yl)-3-(2-isopropylphenyl)azetidine-3-carboxamide] was tested. Which IC50 did it give?
Its IC50 is 3 nM.

Which IC50 does the source give for COc1cc(Cl)ncc1NC(=O)C1(c2ccccc2C(C)C)CN(C(=O)Cn2ccnn2)C1 [Example 19-11, 1-(2-(1H-1,2,3-triazol-1-yl)acetyl)-N-(6-chloro-4-methoxypyridin-3-yl)-3-(2-isopropylphenyl)azetidine-3-carboxamide] here?
Its IC50 is 107 nM.

For COc1cc(Cl)ncc1NC(=O)C1(c2ccccc2C(C)C)CN(c2c(O)c(=O)c2=O)C1 [Example 27, N-(6-chloro-4-methoxypyridin-3-yl)-1-(2-hydroxy-3,4-dioxocyclobut-1-en-1-yl)-3-(2-isopropylphenyl)azetidine-3-carboxamide], which IC50 is on record?
The IC50 was 55 nM.

CCOc1cc(Cl)ncc1NC(=O)C1(c2ccccc2C(C)C)CN(CCC(C)(C)C(=O)O)C1 [Example 18-19, 4-(3-((6-chloro-4-ethoxypyridin-3-yl)carbamoyl)-3-(2-isopropylphenyl)azetidin-1-yl)-2,2-dimethylbutanoic acid] was tested. Which IC50 did it give?
The IC50 was 21 nM.

How did the IC50 turn out when COc1cc(Cl)ncc1NC(=O)C1(c2ccccc2C(C)C)CN(C(=O)CNS(N)(=O)=O)C1 [Example 19-14, N-(6-chloro-4-methoxypyridin-3-yl)-3-(2-isopropylphenyl)-1-(sulfamoylglycyl)azetidine-3-carboxamide] was run?
The IC50 was 67 nM.

For COc1cc(Cl)ncc1NC(=O)C1(c2ccccc2C(C)C)CN(c2nc(C)ncc2F)C1 [Example 24-16, N-(6-chloro-4-methoxypyridin-3-yl)-1-(5-fluoro-2-methylpyrimidin-4-yl)-3-(2-isopropylphenyl)azetidine-3-carboxamide], which IC50 is on record?
The IC50 was 13 nM.

COC(=O)C(C)(C)CCN1CC(C(=O)Nc2cnc(Cl)cc2OC)(c2ccccc2C(C)C)C1 [Example 18-16, methyl 4-(3-((6-chloro-4-methoxypyridin-3-yl)carbamoyl)-3-(2-isopropylphenyl)azetidin-1-yl)-2,2-dimethylbutanoate] was tested. Which IC50 did it give?
Its IC50 is 111 nM.

Which IC50 does the source give for COc1cc(Cl)ncc1NC(=O)C1(c2ccccc2C(C)C)CN(Cc2cc[nH]n2)C1 [Example 18-13, 1-((1H-pyrazol-3-yl)methyl)-N-(6-chloro-4-methoxypyridin-3-yl)-3-(2-isopropylphenyl)azetidine-3-carboxamide] here?
Its IC50 is 129 nM.

With COc1cc(Cl)ncc1NC(=O)C1(c2ccccc2C(C)C)CN(c2ncncc2F)C1 [Example 24-10, N-(6-chloro-4-methoxypyridin-3-yl)-1-(5-fluoropyrimidin-4-yl)-3-(2-isopropylphenyl)azetidine-3-carboxamide] as the compound, how does the IC50 read?
Its IC50 is 2 nM.

How did the IC50 turn out when COc1cc(Cl)ncc1NC(=O)C1(c2ccccc2C(C)C)CN(c2ccnc(C)c2F)C1 [Example 24-3, N-(6-chloro-4-methoxypyridin-3-yl)-1-(3-fluoro-2-methylpyridin-4-yl)-3-(2-isopropylphenyl)azetidine-3-carboxamide] was run?
The IC50 was 2 nM.

Which IC50 does the source give for COc1cc(Cl)ncc1NC(=O)C1(c2ccccc2C(C)C)CN(C(=O)Cn2cc(C)nn2)C1 [Example 19-8, N-(6-chloro-4-methoxypyridin-3-yl)-3-(2-isopropylphenyl)-1-(2-(4-methyl-1H-1,2,3-triazol-1-yl)acetyl)azetidine-3-carboxamide] here?
The IC50 was 43 nM.

Which IC50 does the source give for COc1cc(Cl)ncc1NC(=O)C1(c2ccccc2C(C)C)CN(C2=NC(=O)CO2)C1 [Example 26, N-(6-chloro-4-methoxypyridin-3-yl)-3-(2-isopropylphenyl)-1-(4-oxo-4,5-dihydrooxazol-2-yl)azetidine-3-carboxamide] here?
The IC50 was 12 nM.

How did the IC50 turn out when COc1cc(C(F)(F)F)ncc1NC(=O)C1(c2ccccc2C(C)C)CNC1 [Example 12, 3-(2-isopropylphenyl)-N-(4-methoxy-6-(trifluoromethyl)pyridin-3-yl)azetidine-3-carboxamide] was run?
The IC50 was 1200 nM.

With COc1cc(Cl)ncc1NC(=O)C1(c2ccccc2C2CCCC2)CNC1 [Example 17, N-(6-chloro-4-methoxypyridin-3-yl)-3-(2-cyclopentylphenyl)azetidine-3-carboxamide] as the compound, how does the IC50 read?
Its IC50 is 3 nM.

For COc1cc(Br)ncc1NC(=O)C1(c2ccccc2C(C)C)CNC1 [Example 4, N-(6-bromo-4-methoxypyridin-3-yl)-3-(2-isopropylphenyl)azetidine-3-carboxamide], which IC50 is on record?
Its IC50 is 6 nM.

Which IC50 does the source give for COc1cc(Br)ncc1NC(=O)C1(c2ccccc2C(C)C)CN(S(N)(=O)=O)C1 [Example 21-9, N-(6-bromo-4-methoxypyridin-3-yl)-3-(2-isopropylphenyl)-1-sulfamoylazetidine-3-carboxamide] here?
The IC50 was 2 nM.

With COc1cc(Cl)ncc1NC(=O)C1(c2ccccc2C(C)C)CN(c2ncc(C(=O)O)cn2)C1 [Example 24-23, 2-(3-((6-chloro-4-methoxypyridin-3-yl)carbamoyl)-3-(2-isopropylphenyl)azetidin-1-yl)pyrimidine-5-carboxylic acid] as the compound, how does the IC50 read?
Its IC50 is 3150 nM.

COC(=O)c1ccc(N2CC(C(=O)Nc3cnc(Cl)cc3OC)(c3ccccc3C(C)C)C2)nn1 [Example 24-24, methyl 6-(3-((6-chloro-4-methoxypyridin-3-yl)carbamoyl)-3-(2-isopropylphenyl)azetidin-1-yl)pyridazine-3-carboxylate] was tested. Which IC50 did it give?
The IC50 was 24 nM.

How did the IC50 turn out when COc1cc(Cl)ncc1NC(=O)C1(c2ccccc2C(C)C)CN(c2cc(C)ncc2F)C1 [Example 24-4, N-(6-chloro-4-methoxypyridin-3-yl)-1-(5-fluoro-2-methylpyridin-4-yl)-3-(2-isopropylphenyl)azetidine-3-carboxamide] was run?
Its IC50 is 2 nM.

With COc1cc(Cl)ncc1NC(=O)C1(c2ccccc2C(C)C)CN(C(=O)CC(C)(C)C(=O)O)C1 [Example 19-18, 4-(3-((6-chloro-4-methoxypyridin-3-yl)carbamoyl)-3-(2-isopropylphenyl)azetidin-1-yl)-2,2-dimethyl-4-oxobutanoic acid] as the compound, how does the IC50 read?
Its IC50 is 88 nM.

For COc1cc(Cl)ncc1NC(=O)C1(c2ccccc2C(C)C)CN(CCO)C1 [Example 18-3, N-(6-chloro-4-methoxypyridin-3-yl)-1-(2-hydroxyethyl)-3-(2-isopropylphenyl)azetidine-3-carboxamide], which IC50 is on record?
The IC50 was 37 nM.

COc1cc(Cl)ncc1NC(=O)C1(c2ccccc2C(C)C)CN(c2ccncc2C)C1 [Example 24-1, N-(6-chloro-4-methoxypyridin-3-yl)-3-(2-isopropylphenyl)-1-(3-methylpyridin-4-yl)azetidine-3-carboxamide] was tested. Which IC50 did it give?
Its IC50 is 2 nM.

For COc1cc(Cl)ncc1NC(=O)C1(c2ccccc2C(C)C)CN(c2cnc(C(=O)O)cn2)C1 [Example 24-20, 5-(3-((6-chloro-4-methoxypyridin-3-yl)carbamoyl)-3-(2-isopropylphenyl)azetidin-1-yl)pyrazine-2-carboxylic acid], which IC50 is on record?
Its IC50 is 145 nM.

With COc1cc(Cl)ncc1NC(=O)C1(c2ccccc2C(C)C)CN(C[C@@H]2COC(C)(C)O2)C1 [Example 18-11, (R)-N-(6-chloro-4-methoxypyridin-3-yl)-1-((2,2-dimethyl-1,3-dioxolan-4-yl)methyl)-3-(2-isopropylphenyl)azetidine-3-carboxamide] as the compound, how does the IC50 read?
The IC50 was 136 nM.

For COc1cc(Cl)ncc1NC(=O)C1(c2ccccc2C(C)C)CN(C2COC2)C1 [Example 18-9, N-(6-chloro-4-methoxypyridin-3-yl)-3-(2-isopropylphenyl)-1-(oxetan-3-yl)azetidine-3-carboxamide], which IC50 is on record?
Its IC50 is 22 nM.

With COc1cc(Cl)ncc1NC(=O)C1(c2ccccc2C(C)C)CN(C=O)C1 [Example 19-3, N-(6-chloro-4-methoxypyridin-3-yl)-1-formyl-3-(2-isopropylphenyl)azetidine-3-carboxamide] as the compound, how does the IC50 read?
Its IC50 is 9 nM.

With COC(=O)c1ccc(N2CC(C(=O)Nc3cnc(Cl)cc3OC)(c3ccccc3C(C)C)C2)nc1 [Example 24-21, methyl 6-(3-((6-chloro-4-methoxypyridin-3-yl)carbamoyl)-3-(2-isopropylphenyl)azetidin-1-yl)nicotinate] as the compound, how does the IC50 read?
Its IC50 is 12 nM.

With COc1cc(Cl)ncc1NC(=O)C1(c2ccccc2C(C)C)CNC1 [Example 3, N-(6-chloro-4-methoxypyridin-3-yl)-3-(2-isopropylphenyl)azetidine-3-carboxamide] as the compound, how does the IC50 read?
The IC50 was 4 nM.

COc1cc(Cl)ncc1NC(=O)C1(c2ccccc2C(C)C)CN(CC(C)C)C1 [Example 18-2, N-(6-chloro-4-methoxypyridin-3-yl)-1-isobutyl-3-(2-isopropylphenyl)azetidine-3-carboxamide] was tested. Which IC50 did it give?
The IC50 was 35 nM.

Which IC50 does the source give for COCCS(=O)(=O)N1CC(C(=O)Nc2cnc(Cl)cc2OC)(c2ccccc2C(C)C)C1 [Example 20-2, N-(6-chloro-4-methoxypyridin-3-yl)-3-(2-isopropylphenyl)-1-((2-methoxyethyl)sulfonyl)azetidine-3-carboxamide] here?
Its IC50 is 608 nM.

For COc1cc(Cl)ncc1NC(=O)C1(c2ncccc2C(C)C)CNC1 [Example 15, N-(6-chloro-4-methoxypyridin-3-yl)-3-(3-isopropylpyridin-2-yl)azetidine-3-carboxamide], which IC50 is on record?
The IC50 was 196 nM.

For COc1cc(Cl)ncc1NC(=O)C1(c2ccccc2C(C)C)CN(CCC(C)(C)C(=O)O)C1 [Example 18-17, 4-(3-((6-chloro-4-methoxypyridin-3-yl)carbamoyl)-3-(2-isopropylphenyl)azetidin-1-yl)-2,2-dimethylbutanoic acid], which IC50 is on record?
Its IC50 is 27 nM.

For COc1cc(Cl)ncc1NC(=O)C1(c2ccccc2C(C)C)CN(C(N)=O)C1 [Example 22-1, N3-(6-chloro-4-methoxypyridin-3-yl)-3-(2-isopropylphenyl)azetidine-1,3-dicarboxamide], which IC50 is on record?
The IC50 was 22 nM.

How did the IC50 turn out when COC[C@H](C)Oc1cc(Cl)ncc1NC(=O)C1(c2ccccc2C(C)C)CNC1 [Example 9, (S)-N-(6-chloro-4-((1-methoxypropan-2-yl)oxy)pyridin-3-yl)-3-(2-isopropylphenyl)azetidine-3-carboxamide] was run?
Its IC50 is 4 nM.
